The values that follow come from PMC6136712, “Ex vivo drug sensitivity testing as a means for drug repurposing in esophageal adenocarcinoma” (PLoS ONE, 2018).

pEC50: −log10 of the molar value. Read-outs that look alike come from different tables or passages of the source.

Format in all cases: cell-based, human
The test system of experiment [1] is OE33 cells. Description: Epigenetic compound library screen (CellTiter-Glo, 72 h). The following applies: OE33, 6μM; for cytotoxicity at 6 µM: Homo sapiens, read-out: % cell killing /control. The protocol:
(§1) We tested a 163 compound epigenetic library that consists of inhibitors and activators of epigenetic modifying enzymes (writers, erasers and readers). All compounds were dissolved in 100% DMSO and tested in duplicate at a nominal test concentration of 6μM. Wells with assay buffer containing DMSO served as negative controls. 1000 exponentially growing cells were seeded per well in 384-well micro-titer plates and incubated in the presence of compounds in a humidified environment at 37°C and 5% CO2. After 72 hours of treatment, cell viability was assessed by measuring ATP levels via bioluminescence (CellTiter-Glo, Promega). […] Curve fitting and statistical analyses are performed in GraphPad prism.

Experiment [2] relates to Flo-1 cells. The description is as above. The following applies: Flo-1, 6μM; for cytotoxicity at 6 µM: Homo sapiens, read-out: % cell killing /control. Here is the method:
as §1

Experiment [3] relates to EAC47 cells. Described as above. The note with it: EAC47, 6μM; for cytotoxicity at 6 µM: Homo sapiens, read-out: % cell killing /control; for cytotoxicity at 6 µM / % cell killing /control: 72 h. Here is the method: as §1
Experiment [4] has as its system SK-GT2 cells. The experiment in a line: FDA library drug sensitivity testing (CellTiter-Glo, 72 h). The gist of the method: (§2)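 1000 cells/well exposed 72 h at 37 °C to drugs in duplicate, top concentration 10μM over a 20,000-fold range; DMSO wells as negative controls. Viability by ATP bioluminescence (CellTiter-Glo). Curves scored with the modified drug sensitivity score (DSSmod/sDSSmod).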

Experiment [5] concerns EAC42 cells. The description is as above. The gist of the method:
as §2

Experiment [6] relates to normal esophageal epithelium cell line EACN42. Description: FDA library drug sensitivity testing (CellTiter-Glo, 72 h), normal control cells. Set-up: key to DSS: modified drug sensitivity score (DSSmod) from dose-response curve fit. The following applies: EACN42 normal esophageal cells, 72 h; for DSS: drug sensitivity score; for pEC50: cell viability (ATP), max test concentration 10μM. The gist of the method:
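HPV E6-E7-immortalized normal human esophageal epithelial cells, 1000 per well, exposed 72 h at 37 °C to drugs in duplicate from 10μM top concentration across a 20,000-fold range. Viability by ATP bioluminescence; DMSO wells as negative control; curves scored with modified drug sensitivity score (DSSmod).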

Experiment [7] has as its system Flo-1 cells. The experiment in a line: FDA library drug sensitivity testing (CellTiter-Glo, 72 h). From the text: OE33, OE19 and SKGT2 human esophageal adenocarcinoma cell lines were obtained from the European Collection of Cell Culture ([…]). Flo1, EAC42 and EAC47 cells were established in the Capobianco Laboratory. EAC42 and EAC47 human esophageal adenocarcinoma cell lines are derived from patients undergoing surgery at the Miller School of Medicine, University of Miami. The Capobianco laboratory obtained written informed consent from all patients and approval from the Institutional Research Ethics Committee.
Drug sensitivity testing (DST) was performed as described previously. […] Individual drugs were dissolved in 100% DMSO and tested in duplicates starting at a maximal test concentration of 10μM then over a 20,000-fold concentration range to generate dose response curves. Wells with assay buffer containing DMSO served as negative controls. 1000 exponentially growing cells were seeded per well in 384-well micro-titer plates and incubated in the presence of compounds in a humidified environment at 37°C and 5% CO2. After 72 hours of treatment, cell viability was assessed by measuring ATP levels via bioluminescence (CellTiter-Glo, Promega) according to manufactures recommendations. Interpretation of curve parameters was performed according to the modified drug sensitivity scoring (DSSmod) function developed by Swords et al. As a final step, the selective DSSmod (sDSSmod) for each drug in each patient screen is calculated according to the formula sDSSmod = DSSmod (patient cells)—DSSmod (normal cells). Given in this way, the sDSSmod incorporated information on each drug’s potency, efficacy, effect range and therapeutic index, making it possible to prioritize compounds over multiple parameters using a single numerical metric. In addition, this methodology allows us to rank compounds by cancer-selective efficacy for each individual patient. […] All calculations and scoring routines are implemented in MatLab and additional curve fitting and statistical analyses are performed in GraphPad prism.

The test system of experiment [8] is OE33 cells. Described as above. The gist of the method: as §2
Experiment [9] has as its system OE19 cells. The experiment is described as above. The following applies: sDSSmod = DSSmod (patient cells) - DSSmod (normal cells). In a few lines: as §2
For experiment [10], the system named is EAC47 cells. The description is as above. The gist of the method: as §2
Where [11] appears, read: SK-GT2, sDSSmod = DSSmod (patient cells) - DSSmod (normal cells).
Setting [12] is: EAC42, sDSSmod = DSSmod (patient cells) - DSSmod (normal cells).
The mark [13] stands for this setting: Flo-1, sDSSmod = DSSmod (patient cells) - DSSmod (normal cells).
[14] abbreviates: OE33, sDSSmod = DSSmod (patient cells) - DSSmod (normal cells).
[15] abbreviates: EAC47, sDSSmod = DSSmod (patient cells) - DSSmod (normal cells).

Regarding `O=C(/C=C/c1ccc(CN(CCO)CCc2c[nH]c3ccccc23)cc1)NO` [LAQ824], the cytotoxicity at 6 µM in [1] was 99%; in experiment [2], 96.8%; in experiment [3], 108%.
As for `CCN(CC)C(=S)SSC(=S)N(CC)CC` [Disulfiram], the cytotoxicity at 6 µM in experiment [3] came out at 33.9%. Besides, the values for the sDSSmod in experiment [4] (setting [11]) and in experiment [5] (setting [12]) were 10.36 and 7.112, respectively. The DSS in experiment [6] was found to be 0.
With `O=C(/C=C/c1cccc(S(=O)(=O)Nc2ccccc2)c1)NO` [PXD101], the results for the cytotoxicity at 6 µM in experiment [1] and in [2] were 92.3% and 77.6%, respectively.
In the case of `O=C(CCCCCCC(=O)Nc1ccccc1)NO` [SAHA], the “% cell killing /control” value in experiment [2] was 46.32%.
Regarding `CCCCc1nc2cc(/C=C/C(=O)NO)ccc2n1CCN(CC)CC` [SB 939], the cytotoxicity at 6 µM in [1] was found to be 98.9%; in experiment [2], 78.8%.
`O=Nc1ccc(O)c2ncccc12` [NSC-3852]: the “% cell killing /control” value in experiment [1] is given as 42.71%.
As to `CN(C)Cc1c(C(=O)NCCOc2ccc(C(=O)NO)cc2)oc2ccccc12` [PCI-24781 (Abexinostat), Abexinostat], in [1], the cytotoxicity at 6 µM came to 46%.
Take `O=C(CCCCCN1C(=O)c2cccc3cccc(c23)C1=O)NO` [Scriptaid]: in [2], the cytotoxicity at 6 µM stood at 32.5%.
On to `CO[C@H]1C[C@@H]2CC[C@@H](C)[C@@](O)(O2)C(=O)C(=O)N2CCCC[C@H]2C(=O)O[C@H]([C@H](C)C[C@@H]2CC[C@@H](OC(=O)C(C)(CO)CO)[C@H](OC)C2)CC(=O)[C@H](C)/C=C(\C)[C@@H](O)[C@@H](OC)C(=O)[C@H](C)C[C@H](C)/C=C/C=C/C=C/1C` [Temsirolimus], for which the sDSSmod in experiment [7] (setting [13]) is reported as -11.93; in experiment [8] (setting [14]), -11.9329; in experiment [4] (setting [11]), -11.9329; in experiment [9], -11.9329; in [5] (setting [12]) it was -5.1083; in [10] (setting [15]), -9.994. The compound further showed a pEC50 in [6] (Homo sapiens) of less than 5.00. In experiment [6], this compound registered a DSS of 11.93.
Turning to `Nc1nc(=O)n([C@H]2C[C@H](O)[C@@H](CO)O2)cc1F` [2'-Deoxy-5-fluorocytidine], the cytotoxicity at 6 µM turned out to be 65.2% in [1] and 86.8% in [3].
With `CCN(CC)Cc1ccc2cc(COC(=O)Nc3ccc(C(=O)NO)cc3)ccc2c1` [Givinostat (ITF2357), Givinostat], the cytotoxicity at 6 µM in experiment [1] amounted to 87.7%; in [2], 90.9%; in experiment [3] it was 96.8%.
For `Nc1ccccc1NC(=O)c1ccc(CNC(=O)OCc2cccnc2)cc1` [Entinostat (MS-275), Entinostat], the figures for the cytotoxicity at 6 µM in [1], in experiment [2] and in [3] were 76%, 43.3% and 36.6%, respectively.
The like results for `CC(C)[C@H](C(=O)Nc1ccc(C(=O)NO)cc1)c1ccccc1` [(S)-HDAC-42] were, in that order, 89.3%, 84.6% and 76.5%.
As to `Cc1sc2c(c1C)C(c1ccc(Cl)cc1)=N[C@@H](CC(N)=O)c1nnc(C)n1-2` [CPI203], the “% cell killing /control” value in experiment [2] came out at 48.79%. For the same compound, in [3], the sensitivity in words entry is on record as “sensitivity” and the “% cell killing /control” value is recorded as 43.29%.
For `CC[C@@H]1C(=O)N(C)c2cnc(Nc3ccc(C(=O)NC4CCN(C)CC4)cc3OC)nc2N1C1CCCC1` [BI-2536], the cytotoxicity at 6 µM is 77.6% in experiment [1], 95.9% in experiment [2] and 39.5% in experiment [3].
`CC(/C=C/C(=O)NO)=C\[C@@H](C)C(=O)c1ccc(N(C)C)cc1` [Trichostatin A]: the “% cell killing /control” value is given as 98.02% in experiment [1], 96.32% in experiment [2] and 109.49% in experiment [3].
As to `COc1ccc(-c2nc(N3CCOCC3)c3sc(CN(C)c4ncc(C(=O)NO)cn4)cc3n2)cn1` [CUDC-907], the figures for the cytotoxicity at 6 µM in [1], in experiment [2] and in [3] were 99.4%, 99.7% and 115%, respectively.
For the compound `Cc1cc(C)cc(C(=O)NOCCCCCC(=O)NO)c1` [LMK 235], the “% cell killing /control” value in [1] was 80.31%; in [3], 62.72%.
As for `O=C(/C=C/c1cccc(C(=O)NO)c1)NO` [CBHA], in [3], the “% cell killing /control” value turned out to be 20.30%.
With `CO[C@H]1C[C@@H]2CC[C@@H](C)[C@@](O)(O2)C(=O)C(=O)N2CCCC[C@H]2C(=O)O[C@H]([C@H](C)C[C@@H]2CC[C@@H](O)[C@H](OC)C2)CC(=O)[C@H](C)/C=C(\C)[C@@H](O)[C@@H](OC)C(=O)[C@H](C)C[C@H](C)/C=C/C=C/C=C/1C` [Rapamycin], the sDSSmod was -10.72 in experiment [7] (setting [13]); -11.012 in experiment [8] (setting [14]); -11.012 in [4] (setting [11]); -11.012 in experiment [9]; -6.15 in [5] (setting [12]); -8.931 in experiment [10] (setting [15]). This compound also showed a negative-log EC50 (pEC50) in [6] (Homo sapiens) of 5.52. Further, the DSS in [6] turned out to be 11.01.
Turning to `CC(C)n1c(/C=C/C(O)CC(O)CC(=O)O)c(-c2ccc(F)cc2)c2ccccc21` (stereo not drawn) [Fluvastatin sodium], the sDSSmod is given as -9.71 in experiment [7] (setting [13]); -10.5948 in [8] (setting [14]); -17.1525 in [4] (setting [11]); -16.7184 in experiment [9]; -14.3727 in experiment [5] (setting [12]); -15.1417 in experiment [10] (setting [15]). For the same compound, the negative logarithm of the EC50 (pEC50) in [6] (Homo sapiens) is 5.97. This compound returned a DSS in experiment [6] of 17.36.
As to `O=C(/C=C/c1cccc(S(=O)(=O)Nc2ccccc2)c1)NO` [Belinostat], the sDSSmod in [7] (setting [13]) is -19; in experiment [8] (setting [14]), -19.002; in [4] (setting [11]), -19.002; in experiment [9], -19.002; in experiment [5] (setting [12]), 10.9; in experiment [10] (setting [15]), 6.846. Moreover, the negative logarithm of the EC50 (pEC50) in [6] (Homo sapiens) was 5.97. Also, the DSS in experiment [6] worked out at 19.
As for `Nc1nc(F)nc2c1ncn2[C@@H]1O[C@H](COP(=O)(O)O)[C@@H](O)[C@@H]1O` [Fludara], the sDSSmod in experiment [7] (setting [13]) is reported as -5.23; in [8] (setting [14]), -12.9868; in [4] (setting [11]) it was -12.9068; in experiment [9], -23.9486; in [5] (setting [12]), -46.3431; in experiment [10] (setting [15]), -46.3431. Also, the negative logarithm of the EC50 (pEC50) in experiment [6] (Homo sapiens) is 7.30. Besides, the DSS in experiment [6] was found to be 46.34.
As for `CN(C)c1ccc(C(=O)NCCCCCCC(=O)NO)cc1` [M-344], the “% cell killing /control” value came out at 68.75% in [1] and 56.82% in experiment [2].
As to Bleomycin sulfate, the sDSSmod is recorded as -18.12 in experiment [7]; -15.1946 in experiment [8]; -29.9671 in experiment [4]; -18.9933 in experiment [9]; -29.1318 in experiment [5]; -29.4923 in experiment [10]. The compound also had a negative-log EC50 (pEC50) in experiment [6] of 6.43. The DSS in [6] is listed as 30.58.
Consider `Nc1ncnc2c1c(I)cn2[C@@H]1O[C@H](CO)[C@@H](O)[C@H]1O` [5-Iodotubercidin], for which the “% cell killing /control” value in experiment [2] was found to be 50.40%.
For the compound `CC1(C)CCC2=C(O1)c1ccccc1C(=O)C2=O` [β-Lapachone], the cytotoxicity at 6 µM in experiment [2] was found to be 40.9%.
